These results are taken from ChEMBL document CHEMBL3102731, “Structure-activity relationship studies and biological characterization of human NAD(+)-dependent 15-hydroxyprostaglandin dehydrogenase inhibitors” (Bioorg Med Chem Lett, 2014).

In data set [1] the test system is A549. Description: Induction of PGE2 production in human A549 cells assessed as concentration required for half-maximal activation after 4 to 20 hrs by HTRF assay. It is filed as functional, cell-based. (In TR-FRET formats the signal depends on donor and acceptor labels being close together.)
The nature of data set [2]: Kinetic solubility of the compound in PBS buffer at pH 7.4. In kind it is physicochemical.
Data set [3] can be described thus: Passive permeability of the compound at pH 7.4 by PAMPA. In kind it is ADME. (In general: The PAMPA barrier holds no transporters, so it reflects passive diffusion.)
Data set [4] has as its target T1, 15-hydroxyprostaglandin dehydrogenase [NAD(+)] (Homo sapiens, UniProt P15428).
T1 sequence (P15428 whole entry): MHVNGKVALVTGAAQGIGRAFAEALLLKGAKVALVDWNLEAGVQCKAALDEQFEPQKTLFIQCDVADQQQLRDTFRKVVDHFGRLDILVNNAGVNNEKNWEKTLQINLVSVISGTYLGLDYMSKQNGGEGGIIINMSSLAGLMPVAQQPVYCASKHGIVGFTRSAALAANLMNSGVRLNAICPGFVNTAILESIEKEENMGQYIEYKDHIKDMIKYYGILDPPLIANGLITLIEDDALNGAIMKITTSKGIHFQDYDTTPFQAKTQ
Description: Inhibition of human HPGD using PGE2 as substrate after 15 mins by fluorescence assay.

For data set [5], the system named is LNCaP. Briefly: Induction of PGE2 production in human LNCAP cells at 41.9 nM to 100 uM after 16 hrs by HTRF assay relative to control. It is filed as functional.
For data set [6], the system named is A549. Briefly: Induction of PGE2 production in human A549 cells at 775 pM to 45.8 uM after 4 to 20 hrs by HTRF assay relative to control. In kind it is functional.
Data set [7] relates to LNCaP. Briefly: Induction of PGE2 production in human LNCAP cells assessed as half-maximal activation concentration after 16 hrs by HTRF assay. In kind it is functional, cell-based.
The test system of data set [8] is Liver microsome. Briefly: Half life in rat liver microsomes in presence of NADPH. In kind it is ADME. A general note: Liver microsomes are vesicles of endoplasmic reticulum, rich in cytochrome P450 enzymes.

Usually AC50 stands for the concentration at which the activity in the assay is half-maximal. As usually defined, the IC50 is the concentration needed to halve the response being measured. The low end stands for greater potency in that assay, the high end for weaker potency in that assay.

As to `Cc1cccc(-n2cnc3cc(C(=O)N4CCCCC4)ccc32)c1`, the AC50 in data set [1] was 469 nM; in data set [7], 884 nM. Moreover, the Kinetic_solubility in data set [2] is over 47 µM. In addition, the permeability in data set [3] turned out to be 1200 ×10⁻⁶ cm/s. The same compound came in with an IC50 in data set [4] of 19 nM. In addition, the Activity is 62% in data set [5] and 129% in data set [6]. Also, the t1/2 in data set [8] was 7.3 min.

`Cc1cc(-c2nnc3n2CCCCC3)c(C)n1-c1ccccc1` registered a Kinetic_solubility in data set [2] of over 45 µM. Also, in data set [3], the permeability was 599 ×10⁻⁶ cm/s. This compound gave an IC50 in data set [4] of 54 nM. In addition, the Activity in data set [5] is 73%; in data set [6] it was 106%. Consider `Cc1cc(-c2nnc3n2CCCCC3)c(C)n1-c1ccc(F)cc1`, for which, in data set [4], the midpoint of inhibition, the IC50, lay at 121 nM.

In the case of `COc1ccccc1-n1cnc2cc(C(=O)N3CCCCC3)ccc21`, in data set [4], the IC50 worked out at 27 nM. In data set [4], `Cc1cc(-c2nnc3n2CCCCC3)c(C)n1-c1ccc(Cl)cc1` returned a concentration for half-maximal inhibition (IC50) of 38 nM. The compound `Cc1cc(-c2nnc3n2CCCCC3)c(C)n1-c1ccc(Br)cc1` came in with an IC50 in data set [4] of 48 nM. Regarding `Cc1cc(-c2nnc3n2CCCCC3)c(C)n1-c1ccc(C(F)(F)F)cc1`, in data set [4], the IC50 worked out at 68 nM. With `Cc1cc(-c2nnc3n2CCCCC3)c(C)n1-c1ccc(C#N)cc1`, half-maximal inhibition in data set [4] (IC50) was put at 96 nM. For the compound `COc1ccc(-n2c(C)cc(-c3nnc4n3CCCCC4)c2C)cc1`, 86 nM corresponded to half-maximal inhibition in data set [4] (IC50). On the same count and under the same terms, then `Cc1cc(-c2nnc3n2CCCCC3)c(C)n1-c1ccc([N+](=O)[O-])cc1`, with 108 nM; and `Cc1cc(-c2nnc3n2CCCCC3)c(C)n1-c1ccc(C(C)(C)C)cc1`, with 136 nM. On the same count and under the same terms, then `CCOC(=O)c1ccc(-n2c(C)cc(-c3nnc4n3CCCCC4)c2C)cc1`, with 38 nM. The same measure, in the same setting: the value for `Cc1cc(-c2nnc3n2CCCCC3)c(C)n1-c1ccccn1` was 1080 nM. `Cc1cc(-c2nnc3n2CCCCC3)c(C)n1-c1cccnc1` showed an IC50 in data set [4] of 271 nM. On to `Cc1cc(-c2nnc3n2CCCCC3)c(C)n1-c1ccncc1`, for which the IC50 in data set [4] came to 383 nM. Same read-out and setting: the value for `Cc1cc(-c2nnc3n2CCCCC3)c(C)n1-c1cccc2ccccc12` was 108 nM; that for `Cc1cc(-c2nnc3n2CCC3)c(C)n1-c1ccccc1` was 3040 nM; that for `Cc1cc(-c2nnc3n2CCCC3)c(C)n1-c1ccccc1` was 192 nM.

For `Cc1cc(-c2nnc3n2CCCCCC3)c(C)n1-c1ccccc1`, in data set [4], half-maximal inhibition (IC50) required 242 nM. `Cc1cc(-c2nnc3n2CCCCCCC3)c(C)n1-c1ccccc1`: the IC50 in data set [4] is 383 nM.

Compound `c1ccc(-n2ccc(-c3nnc4n3CCCCC4)c2)cc1` displayed an IC50 in data set [4] of 607 nM. Same read-out and setting: the value for `c1ccc(-n2ccc(-c3nnc4n3CCCCC4)n2)cc1` was 3830 nM; that for `c1ccc(-n2cc(-c3nnc4n3CCCCC4)c3ccccc32)cc1` was 681 nM; that for `Cc1cccc(-n2cnc3cc(C(=O)N4CCCC(C)C4)ccc32)c1` (stereo not given) was 22 nM. Regarding `Cc1cccc(-n2cnc3cc(C(=O)N4CC(C)CC(C)C4)ccc32)c1` (stereo not given), it took 271 nM to reach half-maximal inhibition in data set [4] (IC50). On the same count and under the same terms, the value for `Cc1cccc(-n2cnc3cc(C(=O)N4CCCC(C(C)C)C4)ccc32)c1` (stereo not given) was 48 nM; that for `Cc1cccc(-n2cnc3cc(C(=O)N4CCCC(C(F)(F)F)C4)ccc32)c1` (stereo not given) was 68 nM.

The compound `Cc1cccc(-n2cnc3cc(C(=O)N4CCC(C(F)(F)F)CC4)ccc32)c1` displayed an IC50 in data set [4] of 1520 nM.

Turning to `Cc1cccc(-n2cnc3cc(C(=O)N4CCCC4)ccc32)c1`, in data set [4], the IC50 turned out to be 383 nM. With `Cc1cccc(-n2cnc3cc(C(=O)N4CCCC(c5ccccc5)C4)ccc32)c1` (stereo not given), in data set [4], inhibition was half-maximal at 429 nM (IC50). In turn, `Cc1cccc(-n2cnc3cc(C(=O)NC4CCCC4)ccc32)c1` gave an IC50 in data set [4] of 961 nM.

Regarding `CCCCNC(=O)c1ccc2c(c1)ncn2-c1cccc(C)c1`, in data set [4], the IC50 worked out at 1360 nM. In data set [4], `Cc1cccc(-n2cnc3cc(C(=O)N4CCN(C)CC4)ccc32)c1` displayed an IC50 of 2710 nM. Same read-out and setting: then `Cc1cccc(-n2cnc3cc(C(=O)N4CCOCC4)ccc32)c1`, with 3040 nM.

Compound `O=C(c1ccc2c(c1)ncn2-c1ccccc1)N1CCCCC1` came in with an IC50 in data set [4] of 22 nM. On to `COc1cccc(-n2cnc3cc(C(=O)N4CCCCC4)ccc32)c1`, for which the IC50 in data set [4] is 19 nM. In data set [4], `CC(C)c1cccc(-n2cnc3cc(C(=O)N4CCCCC4)ccc32)c1` returned an IC50 of 68 nM. Same read-out and setting: the value for `CC(C)(C)c1cccc(-n2cnc3cc(C(=O)N4CCCCC4)ccc32)c1` was 171 nM; that for `Cc1ccc(-n2cnc3cc(C(=O)N4CCCCC4)ccc32)cc1` was 19 nM; that for `O=C(c1ccc2c(c1)ncn2-c1ccc(Cl)cc1)N1CCCCC1` was 22 nM. On the same count and under the same terms, then `O=C(c1ccc2c(c1)ncn2-c1ccc(C(F)(F)F)cc1)N1CCCCC1`, with 86 nM; and `CC(C)(C)c1ccc(-n2cnc3cc(C(=O)N4CCCCC4)ccc32)cc1`, with 54 nM; and `CC(C)(C)n1cnc2cc(C(=O)N3CCCCC3)ccc21`, with 34 nM.

On to `CCCCn1cnc2cc(C(=O)N3CCCCC3)ccc21`, for which half-maximal inhibition in data set [4] (IC50) required 68 nM.
